In ChEMBL document CHEMBL1156829 (Proc Natl Acad Sci U S A, 2008):

Key:
Plasmodium falciparum [1] = experiment: NOVARTIS: Inhibition of Plasmodium falciparum 3D7 (drug-susceptible) proliferation in erythrocyte-based infection assay; type: functional, organism-based; conditions: Plasmodium falciparum, 3D7
Plasmodium falciparum [2] = experiment: NOVARTIS: Inhibition of Plasmodium falciparum W2 (drug-resistant) proliferation in erythrocyte-based infection assay; type: functional, organism-based; conditions: Plasmodium falciparum, W2; read-out: EC50
[3] = NOVARTIS: Cytotoxicity against human hepatocellular carcinoma cell line (Huh7); type: toxicity, cell-based, Huh-7; conditions: Huh7 cells (hepatocellular carcinoma cell line)

Compound | EC50 (Plasmodium falciparum [1]) [µM] | EC50 (Plasmodium falciparum [2]) [µM] | CC50 [3] [µM]
C=CC1(O)CN2CCC1CC2[C@@H](O)c1ccnc2ccc(OC)cc12 (stereo not given in full) | 0.105 | 0.264 | > 10
Brc1ccc(Nc2nc(NCc3ccco3)c3ccccc3n2)cc1 | 0.196 | 0.193 | 7.15
CCc1ccccc1NC(C)=O | > 12.5 | 5.41 | > 100
CCC(c1nc2ccccc2c(=O)n1-c1ccc(Br)cc1)N(CCc1ccccc1)C(=O)c1cccc(C(F)(F)F)c1 (stereo not given) | 0.871 | 0.545 | > 10
COc1c(N2CCN(Cc3c(C)cc(C)cc3C)CC2)c2nc3oc2c2c(OC(=O)C(C)(C)C)c(C)c4c(c12)[C@@H](O)[C@@](C)(OC=C[C@H](OC)[C@@H](C)[C@@H](OC(C)=O)C(C)[C@H](O)[C@H](C)[C@@H](O)C(C)C=CC=C3C)O4 (stereo not given in full) | 0.221 | 0.554 | > 10
CCOC(=O)c1c(C)n(-c2ccccc2)c2ccc(O)cc12 | 1.7 | 2.66 | > 100
O=C(CN1CCN(S(=O)(=O)c2cccc([N+](=O)[O-])c2)CC1)Nc1ccc(OCc2ccccc2)cc1 | 3.91 | 2.65 | > 100
O=C(C[n+]1cc(-c2ccc(Cl)cc2)n2c1CCC2)c1ccc(C2CCCCC2)cc1 | 1.31 | 0.942 | 35.5
Cc1c[n+](Cc2ccccc2)ccc1/C=C/c1ccccc1 | 0.502 | 0.543 | > 10
COc1ccc(/C=C2\SC(=Nc3ccc(F)cc3)NC2=O)c(OC)c1 | 0.271 | 0.543 | > 10
Cc1c(C(=O)N2CCC(C)CC2)sc2ncn(CC(=O)N3CCN(c4ccccn4)CC3)c(=O)c12 | > 1.25 | 0.266 | > 10
O=C(NN=CC1CC=CCC1)c1ccc([N+](=O)[O-])cc1Cl (stereo not given) | > 1.25 | > 0.549 | > 10
NNC(=O)C1CCCN1S(=O)(=O)c1ccc(Cl)cc1 (stereo not given) | 0.564 | 0.547 | > 10
CCCCCCCCCC(=O)N1CCN(C(CC)c2nc3ccccc3c(=O)n2C)CC1 (stereo not given) | 0.283 | 0.267 | > 10
CCOc1ccccc1-n1c(SCC(=O)c2ccc(Cl)cc2)nc2[nH]ncc2c1=O | > 12.5 | 4.02 | 73
O=C(C1CCCCN1)N1CC(c2ccccc2)c2ccccc2C1CN1CCCCC1 (stereo not given) | 0.439 | 0.257 | 4.68
Cc1ccccc1OCC(O)Cn1c(NC2CCCCC2)nc2c1c(=O)[nH]c(=O)n2C (stereo not given) | > 1.7 | 0.549 | > 10
Cc1nc(NC(=N)N)nc2c(C)cccc12 | 0.301 | 0.443 | 16.4
CCOc1ccc(C(=O)C[N+]2=C(CC)c3ccc(C)n3CC2)cc1 | 2.44 | 2.19 | 81
COc1cccc2cc(C(=O)Nc3cccc(C(F)(F)F)c3)c(=O)oc12 | > 1.25 | 0.064 | > 2.37
Cc1cc(C)nc(NC(=N)Nc2cccc(O)c2)n1 | 3.92 | 2.65 | > 100
CN(C)c1ccc(/C=C/C(=O)NC(=O)c2ccccc2OC(=O)c2ccccc2)cc1 | 0.238 | 0.265 | > 10
O=C(Nc1nc(-c2ccccc2)cs1)c1ccccc1O | 1 | 0.643 | 24.3
O=C(Nc1ccc2c(c1)CN(C1CCSCC1)CC2)C1(c2ccccc2)CC1 | > 12.5 | > 5.53 | > 100

Compound | EC50 (Plasmodium falciparum [1]) [µM] | EC50 (Plasmodium falciparum [2]) [µM] | CC50 [3] [µM]
COc1ccc(C(=O)N(C)CCCNc2ccnc3cc(Cl)ccc23)cc1 | 0.797 | 0.553 | > 10
CCN1/C(=C/c2sc3ccc(OC)cc3[n+]2CC)C=Cc2cc(OC)ccc21 | 0.527 | 0.552 | > 10
CCOc1ccc(-c2cn3c(n2)sc2cc(C(=O)NCCN(CC)CC)ccc23)cc1 | 0.766 | 1.27 | 47.5
COC(=O)c1c(N)n(-c2ccccc2OC)c2nc3ccccc3nc12 | > 12.5 | 2.7 | > 100
CN(Cc1ccsc1)C(=O)CCc1nnc(CCCc2ccccc2)o1 | > 1.25 | 0.27 | > 10
CCCCNC(=O)c1ccc(OC2CCN(CC3CCCCC3)CC2)c(Cl)c1 | 0.639 | 0.27 | > 10
O=C(Nc1ccc(-c2nc3ccccc3[nH]2)cc1)c1ccc(-c2ccc(Cl)cc2)o1 | 0.193 | 0.444 | 16.6
Oc1nnc(SCc2nc3ccccc3s2)n1Cc1ccco1 | > 1.46 | 0.268 | > 10
O=c1c2c([nH]c3ccccc13)CCCCCC2 | 2.94 | 2.67 | > 100
COc1ccc2c(c1)[nH]c1c(N3CCN(C(c4ccccc4)c4ccccc4)CC3)ncnc12 | 0.339 | 0.435 | 16.3
O=C1NC(=O)C(Cc2ccc(S(=O)(=O)N3CCN(c4ccccc4)CC3)cc2)S1 (stereo not given) | 0.79 | 5.43 | > 100
Cc1cc(/C=C2\SC(=Nc3ccccc3)N(C3CCCCC3)C2=O)c(C)n1-c1ccc(Br)cc1 | 0.476 | > 0.542 | > 10
CCOC(=O)C1=C(N)N(c2cccc([N+](=O)[O-])c2)C2=C(C(=O)CC(C)(C)C2)C1c1ccc(Cl)cc1 (stereo not given) | 6.14 | 5.55 | > 100
COc1cc(NC(C)CCCN(Cc2ccccc2OC)C(=O)C(Cl)Cl)c2ncccc2c1 (stereo not given) | > 1.5 | 0.554 | > 10
COc1ccc(Cn2c(-c3ccc(Cl)cc3)c[n+]3ccccc23)cc1 | 0.693 | 0.541 | > 10
CCN(CC)c1scc(-c2ccc(Br)cc2)[s+]1 | 0.349 | 0.541 | > 10
CC(=O)c1ccc(NC(=O)CN(C)S(=O)(=O)c2ccc3[nH]c4c(c3c2)CCCC4)cc1 | > 12.5 | 3.58 | 66.9
CCC(CC)=NNC(=O)C(=O)NC1CCCCC1 | 0.231 | 0.535 | > 10
COc1cc(CNNc2nc3cc(Cl)ccc3[nH]2)cc(OC)c1OC | 0.307 | 0.541 | > 10
COc1cccc(OCCN2CCN(c3ncnc4c3cnn4-c3ccccc3)CC2)c1 | 6.25 | 4.05 | > 75.7
CCOCCCNC(=O)c1cc(NC(=O)c2ccc(Cl)c([N+](=O)[O-])c2)ccc1N1CCCCC1 | > 1.25 | 0.077 | 1.43
COc1ccc(-n2nc(C(C)(C)C)cc2NC(=O)CN(C(=O)c2ccc(C(C)(C)C)cc2)C(C)C)cc1 | 1.68 | 1.85 | 34.6
O=C(C1CCN(S(=O)(=O)c2cccc3nonc23)CC1)N1CCCc2ccccc21 | > 1.25 | 0.534 | > 10
COc1ccccc1Nc1nc(NCC2CCCO2)c2ccccc2n1 (stereo not given) | 1.04 | 1.57 | 29.4

Compound | EC50 (Plasmodium falciparum [1]) [µM] | EC50 (Plasmodium falciparum [2]) [µM] | CC50 [3] [µM]
O=C(NCCCCNc1ccnc2cc(Cl)ccc12)C(c1ccccc1)c1ccccc1 | 0.73 | 0.44 | > 8.21
Cc1oc(-c2cccc(C(F)(F)F)c2)cc1C(=O)O | > 0.887 | 0.267 | > 10
Clc1ccc(CNCCCn2ccnc2)cc1Cl | > 1.25 | > 0.269 | > 10
O=C(CCl)Nc1ccc(CN2CCCCC2)cc1 | 0.976 | 0.911 | 34.1
COc1ccc(C(=O)NC(c2ccc(C)cc2)c2cc(Cl)c3cccnc3c2O)cc1 (stereo not given) | 2.42 | 2.7 | > 100
CCCCCCN(C(=O)c1cccc([N+](=O)[O-])c1)C(CC)c1nc2ccccc2c(=O)n1-c1ccccc1OC (stereo not given) | 0.983 | 0.355 | > 6.45
CCOc1ccc2nc3ccc([N+](=O)[O-])cc3c(NC)c2c1 | 0.222 | 0.534 | > 10
O=C(Cn1nc([N+](=O)[O-])nc1Br)NC1CCCCC1 | 4.51 | 2.66 | > 100
COCCN1C(=O)c2ccccc2C(C(=O)Nc2cccc(C(F)(F)F)c2)C1c1cccs1 (stereo not given) | 3.83 | 2.65 | > 100
CC(C)CCNc1ncc(C(=O)NCC(C)C)c(NCCc2ccccc2)n1 | 0.724 | 0.543 | > 10
O=C(Nc1ccc2oc(-c3cccc4ccccc34)nc2c1)c1ccc([N+](=O)[O-])o1 | 5.06 | 2.65 | > 100
CCCCCCN(C(=O)c1ccc2ccccc2c1)C(CC)c1nc2ccccc2c(=O)n1-c1ccc(F)cc1 (stereo not given) | 0.454 | 0.548 | > 10
COC(=O)C[S+]([O-])c1ccccc1 (stereo not given) | 0.647 | 0.543 | > 10
COCCCNC(=O)c1cc(NC(=O)CCCCl)ccc1N1CCc2ccccc2C1 | 0.331 | 0.0304 | 1.13
CCOc1ccc2c(c1)cc(CN(C(C)=O)C1CCCC1)c1nnnn12 | > 1.25 | 0.268 | > 10
C[n+]1cccc(/C=C2/c3ccccc3-c3ncccc32)c1 | 0.809 | 0.555 | > 10
CCc1c(C(=O)N2CCN(C(=O)CCl)C(C)C2)cnn1-c1nc(-c2ccc(Br)cc2)cs1 (stereo not given) | 0.656 | 0.481 | > 8.66
Cc1ccc(C(OCC(C)(C)C[N+](C)(C)C)c2ccccc2)cc1 (stereo not given) | 0.265 | 0.629 | 23.3
Cc1ccc(CN=C(N)Nc2nc(C)cc(C)n2)cc1 | 0.653 | 0.609 | 11.2
Sc1nc2ccc3nsnc3c2[nH]1 | 0.713 | 0.537 | > 10
CCOC(=O)c1c[nH]c2c(CC)cccc2c1=O | 1.66 | 2.65 | > 100
CCc1cc2c(Sc3nnc(N)s3)ncnc2s1 | 0.546 | 0.54 | > 10
